Data as given in PubChem BioAssay AID256 (DTP/NCI, 2004).
Where “and” joins values, the source holds several entries; their conditions need not be identical. Identical values can stand only once. Inconclusive results and toxic doses are left out. Rule for the calls: active = survival T/C of 150% or more; inactive = T/C below 125% in these data.

Test system: CD2F1 mice, L1210 leukemia ip, survival T/C
Assay: NCI In Vivo Anticancer Drug Screen. Data for tumor model L1210 Leukemia (intraperitoneal) in CD2F1 (CDF1) mice
Conditions: endpoint: mean survival time, higher = longer survival
In short: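 Vehicle-treated tumor-bearing mice served as controls (C) for compound-treated mice (T). Reported figure is T divided by C.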

[1] = dose: 100.0 mg/kg/injection, schedule: Q01DX009 (ip), vehicle: saline with Tween-80
[2] = dose: 200.0 mg/kg/injection, schedule: Q01DX009 (ip), vehicle: saline with Tween-80
[3] = dose: 200.0 mg/kg/injection, schedule: Q04DX003 (ip), vehicle: saline with Tween-80
[4] = dose: 400.0 mg/kg/injection, schedule: Q01DX009 (ip), vehicle: saline with Tween-80
[5] = dose: 100.0 mg/kg/injection, schedule: Q01DX001 (ip), vehicle: saline
[6] = dose: 200.0 mg/kg/injection, schedule: Q01DX001 (ip), vehicle: saline
[7] = dose: 100.0 mg/kg/injection, schedule: Q01DX001 (ip), vehicle: saline with Tween-80
[8] = dose: 200.0 mg/kg/injection, schedule: Q01DX001 (ip), vehicle: saline with Tween-80
[9] = dose: 400.0 mg/kg/injection, schedule: Q01DX001 (ip), vehicle: saline with Tween-80
[10] = dose: 100.0 mg/kg/injection, schedule: Q04DX003 (ip), vehicle: saline
[11] = dose: 200.0 mg/kg/injection, schedule: Q04DX003 (ip), vehicle: saline
[12] = dose: 400.0 mg/kg/injection, schedule: Q04DX003 (ip), vehicle: saline
[13] = dose: 200.0 mg/kg/injection, schedule: Q04DX002 (ip), vehicle: saline with Tween-80
[14] = dose: 400.0 mg/kg/injection, schedule: Q04DX002 (ip), vehicle: saline with Tween-80
[15] = dose: 100.0 mg/kg/injection, schedule: Q04DX003 (ip), vehicle: saline with Tween-80
[16] = dose: 400.0 mg/kg/injection, schedule: Q04DX003 (ip), vehicle: saline with Tween-80
[17] = dose: 400.0 mg/kg/injection, schedule: Q01DX001 (ip), vehicle: saline

Measured: T/C

Cc1ccc(Cl)cc1N=Cc1ccccc1O
inactive: [1] 98 % of control | dose: 132.0 mg/kg/injection, schedule: Q04DX003 (ip), vehicle: saline with Tween-80 110 % of control | [2] 94 % of control | [3] 102 % of control | dose: 300.0 mg/kg/injection, schedule: Q04DX003 (ip), vehicle: saline with Tween-80 100 % of control | [4] 97 % of control

CCCSc1ccccc1
inactive: [5] 100 % of control | [6] 102 % of control

N#CC(c1ccccc1)N(c1ccc(NS(=O)(=O)c2ccccc2)cc1)S(=O)(=O)c1ccccc1 (stereo not drawn)
inactive: [7] 93 % of control | [8] 96 % of control | [9] 89 % of control

O=S1(=O)CC(S(=O)(=O)O)C(S(=O)(=O)O)C1 (stereo not drawn)
inactive: [10] 93 % of control | [11] 101 % of control | [12] 93 % of control

CC(C)NC(C)C
inactive: [13] 98 % of control | [14] 98 % of control

CCOC(=O)C(Br)(C(=O)OCC)C(c1ccccc1)c1ccccc1
inactive: [15] 98 % of control | [3] 89 % of control | [16] 93 % of control

Cc1ccc(NC(=O)Nc2cccc(CNC(=O)COc3ccc(Cl)cc3C(=O)O)c2)cc1S(=O)(=O)F
inactive: dose: 25.0 mg/kg/injection, schedule: Q01DX001 (ip), vehicle: saline with Tween-80 102 % of control | dose: 50.0 mg/kg/injection, schedule: Q01DX001 (ip), vehicle: saline with Tween-80 96 % of control | [7] 93 % of control | [8] 86 % of control | [9] 88 % of control

Cc1ccc(S(=O)(=O)OCC2C3CC(c4ccccc43)C2COS(=O)(=O)c2ccc(C)cc2)cc1 (stereo not drawn)
inactive: dose: 100.0 mg/kg/injection, schedule: Q04DX002 (ip), vehicle: saline with Tween-80 102 % of control | [13] 111 % of control | [14] 95 % of control

CCCCc1ccc(O)c(CN2CCCCC2)c1
inactive: dose: 25.0 mg/kg/injection, schedule: Q04DX003 (ip), vehicle: saline with Tween-80 97 % of control | dose: 50.0 mg/kg/injection, schedule: Q04DX003 (ip), vehicle: saline with Tween-80 102 % of control | [15] 98 % of control and 100 % of control

CC(CC(=O)O)(C(=O)O)S(=O)O (stereo not drawn)
inactive: dose: 100.0 mg/kg/injection, schedule: Q04DX002 (ip), vehicle: other 97 % of control | dose: 200.0 mg/kg/injection, schedule: Q04DX002 (ip), vehicle: other 100 % of control | dose: 400.0 mg/kg/injection, schedule: Q04DX002 (ip), vehicle: other 100 % of control

CC1CC2CCC1C2O (stereo not drawn)
inactive: dose: 75.0 mg/kg/injection, schedule: Q01DX001 (ip), vehicle: saline 98 % of control | dose: 150.0 mg/kg/injection, schedule: Q01DX001 (ip), vehicle: saline 91 % of control | dose: 300.0 mg/kg/injection, schedule: Q01DX001 (ip), vehicle: saline 87 % of control

Cc1nc(-c2ccccc2)[nH]c(=O)c1CCO
inactive: [15] 100 % of control | [3] 100 % of control | [16] 111 % of control

CC(=O)Nc1cccc(/C=C/c2cccc([N+](=O)[O-])c2)c1
inactive: dose: 100.0 mg/kg/injection, schedule: Q01DX001 (ip), vehicle: Klucel (hydroxypropylcellulose) (HPC) 103 % of control | dose: 200.0 mg/kg/injection, schedule: Q01DX001 (ip), vehicle: Klucel (hydroxypropylcellulose) (HPC) 93 % of control | dose: 400.0 mg/kg/injection, schedule: Q01DX001 (ip), vehicle: Klucel (hydroxypropylcellulose) (HPC) 100 % of control

F[Si](c1ccc(Br)cc1)(c1ccc(Br)cc1)c1ccc(Br)cc1
inactive: dose: 50.0 mg/kg/injection, schedule: Q01DX009 (ip), vehicle: saline with Tween-80 102 % of control | [1] 94 % of control | [15] 95 % of control | [3] 93 % of control

CCCN(CCC)S(=O)(=O)c1ccc(NC(=O)OCc2ccccc2)cc1
inactive: [5] 103 % of control | [6] 103 % of control | [17] 93 % of control

Clc1cccc(Cl)c1C(Cl)Cl
inactive: [1] 98 % of control | [2] 98 % of control | [4] 98 % of control

CCCCOc1c(OCCCC)c(=O)c1=O
inactive: [5] 108 % of control | dose: 178.0 mg/kg/injection, schedule: Q01DX001 (ip), vehicle: saline 102 % of control | [6] 108 % of control | dose: 267.0 mg/kg/injection, schedule: Q01DX001 (ip), vehicle: saline 96 % of control | [17] 106 % of control | dose: 600.0 mg/kg/injection, schedule: Q01DX001 (ip), vehicle: saline 98 % of control

[C-]#[N+]C1CCCCC1.[C-]#[N+]C1CCCCC1.[Pd].[S-]c1ccccc1.[S-]c1ccccc1
inactive: dose: 3.13 mg/kg/injection, schedule: Q04DX003 (ip), vehicle: distilled water + Tween-80 102 % of control | dose: 6.25 mg/kg/injection, schedule: Q04DX003 (ip), vehicle: distilled water + Tween-80 99 % of control | dose: 12.5 mg/kg/injection, schedule: Q04DX003 (ip), vehicle: distilled water + Tween-80 89 % of control | dose: 25.0 mg/kg/injection, schedule: Q04DX003 (ip), vehicle: distilled water + Tween-80 91 % of control | dose: 50.0 mg/kg/injection, schedule: Q04DX003 (ip), vehicle: distilled water + Tween-80 95 % of control | dose: 100.0 mg/kg/injection, schedule: Q04DX003 (ip), vehicle: distilled water + Tween-80 89 % of control | dose: 200.0 mg/kg/injection, schedule: Q04DX003 (ip), vehicle: distilled water + Tween-80 95 % of control

NC(N)=NC(N)=Nc1ccc(-c2ccc(N=C(N)N=C(N)N)cc2)cc1
inactive: dose: 0.78 mg/kg/injection, schedule: Q01DX009 (ip), vehicle: saline 100 % of control | dose: 1.56 mg/kg/injection, schedule: Q01DX009 (ip), vehicle: saline 105 % of control | dose: 3.13 mg/kg/injection, schedule: Q01DX009 (ip), vehicle: saline 102 % of control | dose: 6.25 mg/kg/injection, schedule: Q01DX009 (ip), vehicle: saline 111 % of control | dose: 12.5 mg/kg/injection, schedule: Q01DX009 (ip), vehicle: saline 104 % of control | dose: 25.0 mg/kg/injection, schedule: Q01DX009 (ip), vehicle: saline 111 % of control

CCN(CC)[S+](C)(=O)/C=C(\[O-])Nc1ccccc1 (stereo not drawn)
inactive: dose: 25.0 mg/kg/injection, schedule: Q01DX001 (ip), vehicle: other 103 % of control | dose: 50.0 mg/kg/injection, schedule: Q01DX001 (ip), vehicle: other 94 % of control | dose: 100.0 mg/kg/injection, schedule: Q01DX001 (ip), vehicle: other 90 % of control

Nc1ccc(S(=O)(=O)S(=O)(=O)c2ccc(N)cc2)cc1
inactive: [7] 93 % of control | [8] 97 % of control

CC(=O)c1ccc(N=Nc2c(N)nc(N)[nH]c2=O)cc1
inactive: [1] 86 % of control | [2] 105 % of control | [4] 102 % of control

O=C(CC(=O)Nc1ccccc1)Nc1ccccc1
inactive: [15] 100 % of control | [3] 100 % of control | [16] 99 % of control

CC(=O)SCCNCCOCCC#N
inactive: [1] 97 % of control | [10] 95 % of control | [2] 101 % of control | [11] 101 % of control | [4] 95 % of control | [12] 101 % of control
